Results from ChEMBL document CHEMBL1629566, “Development and qualification of a pharmacodynamic model for the pronounced inoculum effect of ceftazidime against Pseudomonas aeruginosa” (2009).
Converted amounts (≈) assume the structure as drawn.

Assays:
Type in all cases: functional
[1] = tested on: Pseudomonas aeruginosa; assay: Antimicrobial activity against Pseudomonas aeruginosa PAO1
[2] = tested on: Pseudomonas aeruginosa; assay: Antimicrobial activity against Pseudomonas aeruginosa PAO1 infected in in vitro pharmacodynamic model assessed as bacterial killing at 0 to 128 mg/L using 10^8 CFU/ml inoculum by time kill study
[3] = tested on: Pseudomonas aeruginosa; assay: Antimicrobial activity against Pseudomonas aeruginosa PAO1 infected in in vitro pharmacodynamic model assessed as bacterial killing at 4 mg/L after 24 hrs using 10^6 CFU/ml inoculum by time kill study
[4] = tested on: Pseudomonas aeruginosa; assay: Antimicrobial activity against Pseudomonas aeruginosa PAO1 infected in in vitro pharmacodynamic model assessed as bacterial killing up to 64 mg/L after 48 hrs using 10^7 CFU/ml inoculum by time kill study
[5] = tested on: Pseudomonas aeruginosa; assay: Antimicrobial activity against Pseudomonas aeruginosa PAO1 infected in in vitro pharmacodynamic model assessed as bacterial killing at 4 mg/L after 8 hrs using 10^6 CFU/ml inoculum by time kill study

CC(C)(O/N=C(\C(=O)N[C@@H]1C(=O)N2C(C(=O)[O-])=C(C[n+]3ccccc3)CS[C@H]12)c1csc(N)n1)C(=O)O [CEFTAZIDIME]
MIC [1]: 2 µg/mL (≈ 3.66 µM)
log10cfu [2]: <0.3
log10cfu [3]: 3
log10cfu [4]: 1.6
log10cfu [5]: 3
